# From publication PMC12669040, “Tumour-specific STING agonist synthesis via a two-component prodrug system” (Nature Chemistry, 2025)
# Where “and” joins values, the source holds several entries; their conditions need not be identical. Equal entries are not always repeated.
# Tests used:
# [1] = Colorimetric alkylation rate constant assay with thiol N1; format: physicochemical; conditions: for remaining [A]: N1 from calibration curve (N1 in uM); for remaining [A] / remaining [B]: in µM
# [2] = Colorimetric alkylation rate constant assay with TNB^2− as non-specific thiol; format: physicochemical; set-up: second-order: unit not given here; conditions: for remaining [B]: in µM
# [3] = Time 2891 sec, [B]0 = 250, Replicates 1-3
# [4] = Time 3071 sec, [B]0 = 250, Replicates 1-3
# [5] = Time 3252 sec, [B]0 = 250, Replicates 1-3
# [6] = Time 3433 sec, [B]0 = 250, Replicates 1-3
# [7] = Time 3613 sec, [B]0 = 250, Replicates 1-3
smiles,measurement,setting,value
O=C(CCl)N1CCOCC1 [Compound C4],remaining [A],"[1]; Replicate 1, time 576 sec",78.3846
same,remaining [B],"[1]; Replicate 1, time 576 sec, [B]0 = 250",224.265
same,second-order,"[1]; Replicate 1, time 576 sec, second-order plot value",0.001202
same,remaining [A],"[1]; Replicate 1, time 606 sec",77.4156
same,remaining [B],"[1]; Replicate 1, time 606 sec, [B]0 = 250",223.296
same,second-order,"[1]; Replicate 1, time 606 sec, second-order plot value",0.001257
same,remaining [A],"[1]; Replicate 2, time 576 sec",78.0283
same,remaining [B],"[1]; Replicate 2, time 576 sec, [B]0=250",224.887
same,second-order,"[1]; Replicate 2, time 576 sec, second-order plot value",0.001179
same,remaining [A],"[1]; Replicate 2, time 606 sec",77.1496
same,remaining [B],"[1]; Replicate 2, time 606 sec, [B]0=250",224.008
same,second-order,"[1]; Replicate 2, time 606 sec, second-order plot value",0.00123
same,remaining [A],"[1]; Replicate 3, time 576 sec",79.3863
same,remaining [B],"[1]; Replicate 3, time 576 sec, [B]0=250",224.839
same,second-order,"[1]; Replicate 3, time 576 sec, second-order plot value",0.001164
same,remaining [A],"[1]; Replicate 3, time 606 sec",78.4394
same,remaining [B],"[1]; Replicate 3, time 606 sec, [B]0=250",223.892
same,second-order,"[1]; Replicate 3, time 606 sec, second-order plot value",0.001217
same,remaining [B],"[1]; time 0 sec, [B]0 = 250, replicates 1-3",247.294 and 246.181 and 246.372
same,second-order,"[1]; time 0 sec, replicates 1-3",0.0001443 and 0.0001055 and 0.0001506
same,remaining [B],"[1]; time 30 sec, [B]0 = 250, replicates 1-3",245.834 and 244.471 and 245.125
same,second-order,"[1]; time 30 sec, replicates 1-3",0.0001956 and 0.0001641 and 0.0002207
same,remaining [B],"[1]; time 60 sec, [B]0 = 250, replicates 1-3",244.264 and 243.246 and 243.566
same,second-order,"[1]; time 60 sec, replicates 1-3",0.0002611 and 0.0002284 and 0.000272
same,remaining [B],"[1]; time 91 sec, [B]0 = 250, replicates 1-3",243.074 and 241.878 and 242.29
same,second-order,"[1]; time 91 sec, replicates 1-3",0.0003157 and 0.0002781 and 0.0003304
same,remaining [B],"[1]; time 121 sec, [B]0 = 250, replicates 1-3",241.802 and 240.652 and 241.043
same,second-order,"[1]; time 121 sec, replicates 1-3",0.0003702 and 0.0003322 and 0.0003836
same,remaining [B],"[1]; time 151 sec, [B]0 = 250, replicates 1-3",240.639 and 239.37 and 239.711
same,second-order,"[1]; time 151 sec, replicates 1-3",0.0004294 and 0.0003825 and 0.0004404
same,remaining [B],"[1]; time 182 sec, [B]0 = 250, replicates 1-3",239.367 and 238.23 and 238.549
same,second-order,"[1]; time 182 sec, replicates 1-3",0.0004821 and 0.0004386 and 0.0004918
same,remaining [B],"[1]; time 212 sec, [B]0 = 250, replicates 1-3",238.15 and 237.033 and 237.472
same,second-order,"[1]; time 212 sec, replicates 1-3",0.0005317 and 0.0004932 and 0.0005467
same,remaining [B],"[1]; time 242 sec, [B]0 = 250, replicates 1-3",236.878 and 235.893 and 236.139
same,second-order,"[1]; time 242 sec, replicates 1-3",0.0005943 and 0.0005514 and 0.0005999
same,remaining [B],"[1]; time 273 sec, [B]0 = 250, replicates 1-3",235.688 and 234.696 and 235.147
same,second-order,"[1]; time 273 sec, replicates 1-3",0.0006417 and 0.0006068 and 0.0006568
same,remaining [B],"[1]; time 303 sec, [B]0 = 250, replicates 1-3",234.525 and 233.67 and 234.042
same,second-order,"[1]; time 303 sec, replicates 1-3",0.0006954 and 0.000662 and 0.0007064
same,remaining [B],"[1]; time 333 sec, [B]0 = 250, replicates 1-3",233.361 and 232.444 and 232.88
same,second-order,"[1]; time 333 sec, replicates 1-3",0.0007529 and 0.0007182 and 0.0007667
same,remaining [B],"[1]; time 364 sec, [B]0 = 250, replicates 1-3",232.279 and 231.447 and 231.944
same,second-order,"[1]; time 364 sec, replicates 1-3",0.0007999 and 0.0007714 and 0.0008167
same,remaining [B],"[1]; time 394 sec, [B]0 = 250, replicates 1-3",231.17 and 230.25 and 230.782
same,second-order,"[1]; time 394 sec, replicates 1-3",0.0008594 and 0.0008269 and 0.0008777
same,remaining [B],"[1]; time 424 sec, [B]0 = 250, replicates 1-3",230.115 and 229.224 and 229.847
same,second-order,"[1]; time 424 sec, replicates 1-3",0.000908 and 0.0008806 and 0.000931
same,remaining [B],"[1]; time 454 sec, [B]0 = 250, replicates 1-3",228.924 and 228.283 and 228.77
same,second-order,"[1]; time 454 sec, replicates 1-3",0.000965 and 0.0009423 and 0.0009806
same,remaining [B],"[1]; time 485 sec, [B]0 = 250, replicates 1-3",227.977 and 227.229 and 227.834
same,second-order,"[1]; time 485 sec, replicates 1-3",0.001015 and 0.0009923 and 0.001037
same,remaining [B],"[1]; time 515 sec, [B]0 = 250, replicates 1-3",226.922 and 226.203 and 226.814
same,second-order,"[1]; time 515 sec, replicates 1-3",0.001071 and 0.001049 and 0.001093
same,remaining [B],"[1]; time 545 sec, [B]0 = 250, replicates 1-3",225.813 and 225.205 and 225.879
same,second-order,"[1]; time 545 sec, replicates 1-3",0.001123 and 0.001109 and 0.001148
same,remaining [B],"[2]; Replicate 1, 723 sec, [B]0 = 250",243.209
same,remaining [B],"[2]; Replicate 1, 903 sec, [B]0 = 250",242.478
same,remaining [B],"[2]; Replicate 1, 1084 sec, [B]0 = 250",241.798
same,remaining [B],"[2]; Replicate 1, 1265 sec, [B]0 = 250",241.104
same,remaining [B],"[2]; Replicate 1, 1445 sec, [B]0 = 250",240.437
same,remaining [B],"[2]; Replicate 1, 1626 sec, [B]0 = 250",239.756
same,remaining [B],"[2]; Replicate 1, 1806 sec, [B]0 = 250",239.088
same,remaining [B],"[2]; Replicate 1, 1988 sec, [B]0 = 250",238.42
same,remaining [B],"[2]; Replicate 1, 2168 sec, [B]0 = 250",237.79
same,remaining [B],"[2]; Replicate 1, 2349 sec, [B]0 = 250",237.085
same,remaining [B],"[2]; Replicate 1, 2530 sec, [B]0 = 250",236.392
same,remaining [B],"[2]; Replicate 1, 2710 sec, [B]0 = 250",235.737
same,remaining [B],"[2]; Replicate 2, 542 sec, [B]0=250",242.118
same,remaining [B],"[2]; Replicate 2, 723 sec, [B]0=250",241.425
same,remaining [B],"[2]; Replicate 2, 903 sec, [B]0=250",240.732
same,remaining [B],"[2]; Replicate 2, 1084 sec, [B]0=250",240.077
same,remaining [B],"[2]; Replicate 2, 1265 sec, [B]0=250",239.371
same,remaining [B],"[2]; Replicate 2, 1445 sec, [B]0=250",238.754
same,remaining [B],"[2]; Replicate 2, 1626 sec, [B]0=250",238.023
same,remaining [B],"[2]; Replicate 2, 1806 sec, [B]0=250",237.355
same,remaining [B],"[2]; Replicate 2, 1988 sec, [B]0=250",236.687
same,remaining [B],"[2]; Replicate 2, 2168 sec, [B]0=250",236.019
same,remaining [B],"[2]; Replicate 2, 2349 sec, [B]0=250",235.377
same,remaining [B],"[2]; Replicate 2, 2530 sec, [B]0=250",234.722
same,remaining [B],"[2]; Replicate 2, 2710 sec, [B]0=250",234.041
same,remaining [B],"[2]; Replicate 3, 723 sec, [B]0=250",243.07
same,remaining [B],"[2]; Replicate 3, 903 sec, [B]0=250",242.352
same,remaining [B],"[2]; Replicate 3, 1084 sec, [B]0=250",241.558
same,remaining [B],"[2]; Replicate 3, 1265 sec, [B]0=250",240.878
same,remaining [B],"[2]; Replicate 3, 1445 sec, [B]0=250",240.248
same,remaining [B],"[2]; Replicate 3, 1626 sec, [B]0=250",239.542
same,remaining [B],"[2]; Replicate 3, 1806 sec, [B]0=250",238.786
same,remaining [B],"[2]; Replicate 3, 1988 sec, [B]0=250",238.244
same,remaining [B],"[2]; Replicate 3, 2168 sec, [B]0=250",237.513
same,remaining [B],"[2]; Replicate 3, 2349 sec, [B]0=250",236.921
same,remaining [B],"[2]; Replicate 3, 2530 sec, [B]0=250",236.215
same,remaining [B],"[2]; Replicate 3, 2710 sec, [B]0=250",235.51
same,second-order,[2]; [3],0.0007509 and 0.0006764 and 0.0006669
same,remaining [B],[2]; [3],234.892 and 235.081 and 233.424
same,second-order,[2]; [4],0.000786 and 0.0007119 and 0.0007036
same,remaining [B],[2]; [4],234.187 and 234.35 and 232.743
same,second-order,[2]; [5],0.0008202 and 0.000746 and 0.0007357
same,remaining [B],[2]; [5],233.519 and 233.72 and 232.088
same,second-order,[2]; [6],0.0008541 and 0.0007785 and 0.0007706
same,remaining [B],[2]; [6],232.889 and 233.04 and 231.445
same,second-order,[2]; [7],0.0008877 and 0.0008119 and 0.0008054
same,remaining [B],[2]; [7],232.246
same,second-order,"[2]; Time 3794 sec, [B]0 = 250, Replicates 1-3",0.0009231 and 0.0008424 and 0.0008418
same,second-order,"[2]; Time 3974 sec, [B]0 = 250, Replicates 1-3",0.0009567 and 0.0008773 and 0.0008752
same,second-order,"[2]; Time 4155 sec, [B]0 = 250, Replicates 1-3",0.00099 and 0.0009118 and 0.0009131
same,second-order,"[2]; Time 4336 sec, [B]0 = 250, Replicates 1-3",0.001024 and 0.0009453 and 0.0009474
same,second-order,"[2]; Time 4516 sec, [B]0 = 250, Replicates 1-3",0.00106 and 0.0009785 and 0.000984
same,second-order,"[2]; Time 4697 sec, [B]0 = 250, Replicates 1-3",0.001096 and 0.001013 and 0.001019
same,second-order,"[2]; Time 4878 sec, [B]0 = 250, Replicates 1-3",0.001128 and 0.001047 and 0.001054
same,second-order,"[2]; Time 5058 sec, [B]0 = 250, Replicates 1-3",0.001163 and 0.00108 and 0.001089
same,second-order,"[2]; Time 5239 sec, [B]0 = 250, Replicates 1-3",0.001202 and 0.001118 and 0.001125
same,second-order,"[2]; Time 5419 sec, [B]0 = 250, Replicates 1-3",0.001235 and 0.001153 and 0.001158
same,second-order,"[2]; Time 5600 sec, [B]0 = 250, Replicates 1-3",0.001269 and 0.001184 and 0.001195
same,second-order,"[2]; Time 5781 sec, [B]0 = 250, Replicates 1-3",0.001306 and 0.001219 and 0.001231
same,second-order,"[2]; Time 5961 sec, [B]0 = 250, Replicates 1-3",0.001339 and 0.001252 and 0.001269
